The text below walks through data of patent US7160901B2, “Substituted indolinones, preparation thereof and their use as pharmaceutical compositions” (Boehringer Ingelheim Pharma GmbH & Co. KG, priority 2000, dated 2007).

SMILES strings stand for the structures.

The first experiment relates to Leiomyosarcoma tumour cell line SK-UT-1B. Briefly: Test 1: inhibition of the proliferation of cultivated human tumour cells (14C-thymidine incorporation), SK-UT-1B. The format is cell-based. Particulars: Homo sapiens, Skut1B; in vitro Test 1; SK-UT-1B cells; 48 hours' incubation, then 14C-thymidine for a further 24 hours; IC50 of inhibition of incorporated 14C-thymidine; read-out: Inhibition of SKUT-1B proliferation. The source says: Inhibition of the Proliferation of Cultivated Human Tumour Cells
Cells of the Leiomyosarcoma tumour cell line SK-UT-1B or non-small-cell lung tumour cell line NCI-H460 (obtained from the American Type Culture Collection (ATCC)) were cultivated in Minimum Essential Medium with non-essential amino acids (Gibco), supplemented with sodium pyruvate (1 mMol), glutamine (2 mMol) and 10% foetal calf serum (Gibco) or RPMI1640 Medium (Gibco) and 10% foetal calf serum (Gibco) and harvested in the logarithmic growth phase. Then the SK-UT-1B cells were placed in Cytostar® multi-well plates (Amersham) at a density of 4000 cells per well or 3000 cells per well for NCI-H460 cells and incubated overnight in an incubator. Various concentrations of the compounds (dissolved in DMSO; final concentration: 0.1%) were added to the cells. After 48 hours' incubation, ^14C-thymidine (Amersham) was added to each well and incubation was continued for a further 24 hours. The quantity of ^14C-thymidine which was incorporated into the tumour cells in the presence of the inhibitor and which represents the number of cells in the S phase was measured in a Wallace 1450 Microbeta Liquid Scintillation Counter. IC50 values for the inhibition of the proliferation (=inhibition of incorporated ^14C-thymidine) were calculated, correcting for the background radiation. All the measurements were done twice.
The following Table contains the results obtained with the in vitro Test 1 (++ denotes <0.01 μM, + denotes 0.01–1.0 μM): […]
Consider `CS(=O)(=O)N(CCN)c1ccc(N/C(=C2\C(=O)Nc3ccc(NS(=O)(=O)c4ccccc4)cc32)c2ccccc2)cc1` [Example 2, (Z)-3-{1-[4-(N-(2-aminoethyl)-N-methylsulphonyl-amino)-phenylamino]-1-phenyl-methylidene}-5-phenylsulphonylamino-2-indolinone], for which the IC50 was 10 to 1000 nM.
As to `CN(C)CCN(c1ccc(N/C(=C2\C(=O)Nc3ccc(NS(=O)(=O)c4ccccc4)cc32)c2ccccc2)cc1)S(=O)(=O)c1ccccc1` [Example 4, (Z)-3-{1-[4-(N-(2-dimethylaminoethyl)-N-phenylsulphonyl-amino)-phenylamino)-1-phenyl-methylidene}-5-phenylsulphonylamino-2-indolinone], the IC50 was under 10 nM.
On the same count and under the same terms, under `CN1CCN(Cc2ccc(N/C(=C3\C(=O)Nc4ccc(NS(=O)(=O)c5ccccc5)cc43)c3ccccc3)cc2)CC1` [Example 9, (Z)-3-{1-[4-(4-methylpiperazinomethyl)-phenylamino]-1-phenyl-methylidene}-5-phenylsulphonylamino-2-indolinone] stands 10 to 1000 nM; under `O=C1Nc2ccc(NS(=O)(=O)c3ccccc3)cc2/C1=C(/Nc1ccc(CN2CCCC2)cc1)c1ccccc1` [Example 12, (Z)-3-{1-[4-(pyrrolidin-1-ylmethyl)-phenylamino]-1-phenyl-methylidene}-5-phenylsulphonylamino-2-indolinone], 10 to 1000 nM; under `CC(=O)N(C)c1ccc(N/C(=C2\C(=O)Nc3ccc(NS(=O)(=O)c4ccccc4)cc32)c2ccccc2)cc1` [Example 20, (Z)-3-{1-[4-(N-methyl-N-acetyl-amino)-phenylamino]-1-phenyl-methylidene}-5-phenylsulphonylamino-2-indolinone], 10 to 1000 nM.
Still for that read-out and setting: under `O=C1Nc2ccc(NS(=O)(=O)c3ccccc3)cc2/C1=C(/Nc1ccccc1)c1ccccc1` [Example 22, (Z)-3-(1-phenylamino-1-phenyl-methylidene)-5-phenylsulphonylamino-2-indolinone] stands 10 to 1000 nM; under `O=C1Nc2ccc(NS(=O)(=O)c3ccccc3)cc2/C1=C(/Nc1ccc(Cl)cc1)c1ccccc1` [Example 23, (Z)-3-[1-(4-chlorophenylamino)-1-phenyl-methylidene]-5-phenylsulphonylamino-2-indolinone], 10 to 1000 nM; under `CCC(=O)NCCN(C(=O)CC)c1ccc(N/C(=C2\C(=O)Nc3ccc(NS(=O)(=O)c4ccccc4)cc32)c2ccccc2)cc1` [Example 31, (Z)-3-{1-[4-(N-(2-propionylamino-ethyl)-N-propionyl-amino)-phenylamino]-1-phenyl-methylidene}-5-phenylsulphonylamino-2-indolinone], under 10 nM.
The same measure, in the same setting: under `CN(c1ccc(N/C(=C2\C(=O)Nc3ccc(NS(=O)(=O)c4ccccc4)cc32)c2ccccc2)cc1)S(C)(=O)=O` [Example 42, (Z)-3-[1-(4-(N-methyl-N-methylsulphonyl-amino)-phenylamino)-1-phenyl-methylidene]-5-phenylsulphonylamino-2-indolinone] stands 10 to 1000 nM; under `CN(C(=O)CN1CCCCC1)c1ccc(N/C(=C2\C(=O)Nc3ccc(NS(=O)(=O)c4ccccc4)cc32)c2ccccc2)cc1` [Example 56, (Z)-3-[1-(4-(N-methyl-N-piperidinomethylcarbonyl-amino)-phenylamino)-1-phenyl-methylidene]-5-phenylsulphonylamino-2-indolinone], under 10 nM; under `O=C1Nc2ccc(NS(=O)(=O)Cc3ccccc3)cc2/C1=C(/Nc1ccc(CN2CCCC2)cc1)c1ccccc1` [Example 58, (Z)-3-{1-[4-(pyrrolidin-1-ylmethyl)-phenylamino]-1-phenyl-methylidene}-5-benzylsulphonylamino-2-indolinone], 10 to 1000 nM.
As to `CC1CCCC(C)N1Cc1ccc(N/C(=C2\C(=O)Nc3ccc(NS(=O)(=O)c4cccc([N+](=O)[O-])c4)cc32)c2ccccc2)cc1` (stereo not drawn) [Example 66, (Z)-3-{1-[4-((2,6-dimethylpiperidino)-methyl)-phenylamino]-1-phenyl-methylidene}-5-(3-nitrophenylsulphonylamino)-2-indolinone], the IC50 was under 10 nM.
For the molecule `CCS(=O)(=O)Nc1ccc2c(c1)/C(=C(/Nc1ccc(CN(C)C)cc1)c1ccccc1)C(=O)N2` [Example 70, (Z)-3-{1-[4-dimethylaminomethyl-phenylamino]-1-phenyl-methylidene}-5-ethylsulphonylamino-2-indolinone], the IC50 was 10 to 1000 nM.
Same read-out and setting: under `CCS(=O)(=O)Nc1ccc2c(c1)/C(=C(/Nc1ccc(CN(C)Cc3ccccc3)cc1)c1ccccc1)C(=O)N2` [Example 71, (Z)-3-{1-[4-(N-benzyl-N-methyl-aminomethyl)-phenylamino]-1-phenyl-methylidene}-5-ethylsulphonylamino-2-indolinone] stands 10 to 1000 nM; under `CCS(=O)(=O)Nc1ccc2c(c1)/C(=C(/Nc1ccc(CCN(C)C)cc1)c1ccccc1)C(=O)N2` [Example 72, (Z)-3-{1-[4-(2-dimethylamino-ethyl)-phenylamino]-1-phenyl-methylidene}-5-ethylsulphonylamino-2-indolinone], 10 to 1000 nM; under `O=C1Nc2ccc(NS(=O)(=O)c3cccnc3)cc2/C1=C(/Nc1ccc(CN2CCCC2)cc1)c1ccccc1` [Example 80, (Z)-3-{1-[4-(pyrrolidin-1-ylmethyl)-phenylamino]-1-phenyl-methylidene}-5-(pyridin-3-ylsulphonylamino)-2-indolinone], under 10 nM.
On the same count and under the same terms, under `O=C1Nc2ccc(NS(=O)(=O)c3cccnc3)cc2/C1=C(/Nc1ccc(C(=O)N2CCCC2)cc1)c1ccccc1` [Example 88, (Z)-3-{1-[4-(pyrrolidin-1-ylcarbonyl)-phenylamino]-1-phenyl-methylidene}-5-(pyridin-3-ylsulphonylamino)-2-indolinone] stands 10 to 1000 nM; under `CCS(=O)(=O)Nc1ccc2c(c1)/C(=C(/Nc1ccc(CN3CCCCC3)cc1)c1ccccc1)C(=O)N2` [Example 99, (Z)-3-{1-[4-(piperidinomethyl)-phenylamino]-1-phenyl-methylidene}-5-ethylsulphonylamino-2-indolinone], under 10 nM; under `CC(C)S(=O)(=O)Nc1ccc2c(c1)/C(=C(/Nc1ccc(CN3CCCCC3)cc1)c1ccccc1)C(=O)N2` [Example 101, (Z)-3-{1-[4-(piperidinomethyl)-phenylamino]-1-phenyl-methylidene}-5-isopropylsulphonylamino-2-indolinone], under 10 nM.
For the molecule `O=C1Nc2ccc(NS(=O)(=O)c3cccc4ccccc34)cc2/C1=C(/Nc1ccc(CN2CCCCC2)cc1)c1ccccc1` [Example 104, (Z)-3-{1-[4-(piperidinomethyl)-phenylamino]-1-phenyl-methylidene}-5-(naphthalin-1-ylsulphonylamino)-2-indolinone], the IC50 is under 10 nM.
Still for that read-out and setting: under `O=C1Nc2ccc(NS(=O)(=O)c3cccc([N+](=O)[O-])c3)cc2/C1=C(/Nc1ccc(CN2CCCCC2)cc1)c1ccccc1` [Example 112, (Z)-3-{1-[4-(piperidinomethyl)-phenylamino]-1-phenyl-methylidene}-5-(3-nitrophenylsulphonylamino)-2-indolinone] stands under 10 nM; under `Cc1noc(C)c1S(=O)(=O)Nc1ccc2c(c1)/C(=C(/Nc1ccc(CN3CCCCC3)cc1)c1ccccc1)C(=O)N2` [Example 117, (Z)-3-{1-[4-(piperidinomethyl)-phenylamino]-1-phenyl-methylidene}-5-(3,5-dimethylisoxazol-4-ylsulphonylamino)-2-indolinone], 10 to 1000 nM.
On the same count and under the same terms, under `O=C1Nc2ccc(NS(=O)(=O)C3CC3)cc2/C1=C(/Nc1ccc(CN2CCCCC2)cc1)c1ccccc1` [Example 120, (Z)-3-{1-[4-(piperidinomethyl)-phenylamino]-1-phenyl-methylidene}-5-cyclopropylsulphonylamino-2-indolinone] stands under 10 nM.
With `O=C1Nc2ccc(N(c3cccnc3)S(=O)(=O)c3ccccc3)cc2/C1=C(/Nc1ccc(CN2CCCCC2)cc1)c1ccccc1` [Example 134, (Z)-3-{1-[4-(piperidinomethyl)-phenylamino]-1-phenyl-methylidene}-5-(pyridin-3-ylphenylsulphonylamino)-2-indolinone], the IC50 is under 10 nM.
The same measure, in the same setting: under `O=C1Nc2ccc(NS(=O)(=O)C3CC3)cc2/C1=C(/Nc1ccc(CN2CCCC2)cc1)c1ccccc1` [Example 142, (Z)-3-{1-[4-(pyrrolidin-1-ylmethyl)-phenylamino]-1-phenyl-methylidene}-5-cyclopropylsulphonylamino-2-indolinone] stands 10 to 1000 nM.
For the molecule `CCCS(=O)(=O)Nc1ccc2c(c1)/C(=C(/Nc1ccc(CN3CCCC3)cc1)c1ccccc1)C(=O)N2` [Example 143, (Z)-3-{1-[4-(pyrrolidin-1-ylmethyl)-phenylamino]-1-phenyl-methylidene}-5-propylsulphonylamino-2-indolinone], the IC50 was 10 to 1000 nM.

The experiment is the same for the next values; noted with them: in vitro Test 1; SK-UT-1B cells; 48 hours' incubation, then 14C-thymidine for a further 24 hours; IC50 of inhibition of incorporated 14C-thymidine; read-out: Inhibition of SKUT-1B proliferation.
Regarding `CN(C)Cc1ccc(N/C(=C2\C(=O)Nc3ccc(NS(=O)(=O)c4ccccc4)cc32)c2ccccc2)cc1` [Example 36, (Z)-3-[1-(4-dimethylaminomethyl-phenylamino)-1-phenyl-methylidene]-5-phenylsulphonylamino-2-indole], the IC50 was under 10 nM.
